The source of these data is patent publication US20260263638A1, “COMPOSITIONS AND METHODS TO IMPROVE RNA PROPERTIES USING BASE, PHOSPHODIESTER LINKAGE, SUGAR BACKBONE, AND CAP MODIFICATIONS” (The Broad Institute, Inc., priority 2023, published 2026).

Series [1] has as its system rabbit reticulocyte lysate (RRL) in vitro translation system. Nature of the series: In vitro translation assay in rabbit reticulocyte lysate with or without 4EGI-1. It counts as biochemical. On the procedure: Firefly luciferase reporter mRNA with one cap and Nanoluc mRNA with two caps were synthesized according to protocol mentioned above. The in vitro translation was conducted using Rabbit Reticulocyte Lysate (Nuclease-treated) [Promega, L4960] according to manufacturer's protocol with some modifications. 30% or 40% of rabbit reticulocyte lysate, 4% of SUPERaseIn RNase Inhibitor, amino acid mixture and indicated mRNA were added to the reaction with 4EGI-1 inhibitor (600 μM) or DMSO as control in 50 μL reaction. The reactions were incubated at 30° C. for an hour. Then, […] of the reaction mixture was diluted by 10-fold with PBS. The fluorescence of firefly luciferase was measured with Dual-Glo Luciferase Assay System [Promega, E2920] and the fluorescence of Nanoluc was measured with Nano-Glo Luciferase Assay System [Promega, N1110] according to manufacturer's protocol.

The nature of series [2]: In vivo imaging of NanoLuc after retro-orbital mRNA-LNP injection. As to conditions: mice; for NLuc translation of QRNA relative to uncapped m1ψ-circRNA precursor (circRNA-OU): LNP retro-orbital. On the procedure: All animal procedures followed animal care guidelines approved by the Institutional Animal Care and Use Committee (IACUC) of the Broad Institute of MIT and Harvard under animal protocol #0255-08-19. Animal experiments were conducted in compliance with IACUC policies and NIH guidelines. The BALB/cj (male, 6~8 weeks old) mice used for in vivo NanoLuc assay in this study were purchased from The Jackson Laboratory (JAX). The C57BL/6 mice (female, 7 weeks old), used for hEPO assay in this study were purchased from The Jackson Laboratory (JAX).
mRNA diluted in 50 mM citrate buffer (pH 4) and lipid mix (37.5 mM in ethanol) containing 50 mol % SM-102, 10 mol % DSPC, 38.5 mol % Cholesterol, and 1.5 mol % DMG-PEG2000 were assembled into LNP using a NanoAssemblr Spark instrument [Precision Nanosystems]. Upon formulation, mRNA-LNPs were diluted in 12 mL 1×PBS solution and the buffer was exchanged by concentrating with a 30 kDa spin filter [MilliporeSigma, UFC901008] to remove residue ethanol. Concentrations and encapsulation efficiency of mRNA were determined using Quant-it RiboGreen RNA Assay Kit [ThermoFisher, R11490]. 1 μg NanoLuc or hEPO mRNA-LNP in a total volume of 100 μL was injected through retro orbital injection into each mouse. Four mice were used for each condition of each experiment (NanoLuc imaging, hEPO ELISA, and reticulocyte counting). For NanoLuc imaging, PBS injection was used as negative control. For hEPO/reticulocyte experiments, poly(C)-LNP complex was used as negative control.
In vivo activity of NanoLuc was measured using a Competent IVIS-Perkin Elmer IVIS Spectrum CT System [Perkin Elmer]. At each time point, mice were anesthetized with isoflurane. The fluorofurimazine substrate with poloxamer-407 [Promega, CS320501] was freshly reconstituted in PBS to a final concentration of ~5.1 mM and injected intraperitoneally (i.p.) into the mice at a dose of ~22 nmol per gram body weight. Mice were imaged 5 mins post injection using auto exposure settings. The luminescent activity was quantified using Aura 4.0 imaging software. The background was determined by including mice injected with poly C-LNP negative control and subtracted from each measurement.

In series [3] the test system is HeLa cells. Nature of the series: NLuc bioluminometry of circRNA/QRNA (Fluc transfection control). In kind it is cell-based. On the procedure:
(§1) Synthetic linear mRNA encoding NanoLuciferase (NLuc) was prepared from DNA template by IVT with 100% m1ψ substitution. The triphosphorylated mRNA after IVT was then treated with Calf Intestinal Alkaline Phosphatase (CIAP) to yield 5′/3′-hydroxyl mRNA. A chemically synthesized oligonucleotide with a branched m7G cap and 5′/3′-phosphates was then ligated to the 5′/3′-hydroxyl mRNA by T4 RNA ligase, which ligates the 5′-phosphate on the oligo and 3′-hydroxyl of the mRNA. The ligation product was then further treated with RtcB ligase, which ligates the 5′-hydroxyl and 3′-phosphate ends to enable intramolecular circularization. […] Using one primer only produced no fragmentation but only linearization, confirming successful circularization. Using double primers produced fragments flanking the branched region, where branched topology was confirmed by gel shift. […] NLuc bioluminometry was measured 8 hrs post transfection and normalized Firefly luciferase as transfection control. Mean±s.e.m., n=3. P values were calculated by ordinary one-way ANOVA (alpha=0.05), with multiple comparisons to circ-NLuc with only 5-octadiynyl deoxyuridine (OU) handle (construct 45). ****P<0.0001, n.s. P>0.05. […] QRNA with m7G (construct 48) was compared. n=3, biological replicates. Mean±sem. P values were calculated by ordinary one-way ANOVA with multiple comparisons against construct 61 without any cotransfected capped oligos (Dunnett's multiple comparison test). […] P values were calculated by unpaired two-sided t-test.
HeLa cells [ATCC, CCL-2] were maintained in DMEM culture media [ThermoFisher Scientific, 119951] containing 10% FBS and 1% penicillin-streptomycin [ThermoFisher Scientific, 15070063] in a 37° C. incubator with 5% CO2 and passaged at a ratio of 1:10 every 3 days. […] Cells were lysed and luciferase activity was measured using the Promega Dual Glo Luciferase Assay System [Promega, E2920]. Firefly luminescence/Renilla luminescence for each well was used as mRNA activity readout. […]

The subject of series [4] is HeLa cells. Kind of series: Two-ORF FLuc/3xHiBiT reporter bioluminometry. In kind it is cell-based. The settings on record: 8 hrs post transfection. On the procedure: as §1
Finally, Applicant evaluated if the branched cap on the QRNA has the ability to initiate translation of open reading frames (ORFs) upstream of it. […] FLuc and HiBiT bioluminometry were evaluated 8 hrs post transfection.
Lastly, to test whether the branched cap could drive the translation for upstream AUG via either proximity looping or bidirectional ribosome scanning to opt for upstream open reading frames (ORFs), Applicant generated a two-ORF reporter mRNA that contained a 5′ full-length FLuc ORF and a 3′ 3×HiBIT ORF with an out-of-frame start codon from the FLuc ORF (construct 62). […]
On the technique in general: The HiBiT peptide binds its large partner to form an active luciferase.

In series [5] the target is eIF4E (UniProt P06730 P06730:1-217). Kind of series: EMSA; 50 mM KCl, 10 mM Tris-HCl pH 7.6, 1 mM DTT, 4 C. As to conditions: tags: His tag, Cayman Chemical 25150. On the procedure:
Capped oligonucleotides were labeled on the 3′ end using AF647 labeled cytidine-5′-phosphate-3′-(6-aminohexyl) phosphate [Jena Bioscience, NU-1706-AF647] and T4 RNA ligase ligated AF647-labeled cytidine onto the capped oligos using manufacturer's protocols. Oligos were then incubated in the binding buffer (1 mM DTT, 50 mM KCl, 10 mM Tris-HCl (pH 7.6), Novex Hi-Density TBE Sample Buffer [Invitrogen, LC6678]) with varying eIF4E-His [Cayman Chemical Inc, 25150] concentrations prepared by sequential dilutions from the stock solution. The oligos and […] were incubated at 4° C. for 30 mins and characterized by EMSA with Novex TBE Gels, 4-20% [Invitrogen, EC6225BOX] at 4° C. AF647 labeled oligos were imaged with BioRad ChemiDoc MP Imaging System [12003154] and band intensities were quantified using ImageJ. For Kd calculation, the proportions of bound were plotted against eIF4E concentration using GraphPad Prism (Specific binding with Hill slope).
To gain insights into the mechanism of how the topologically branched internal cap initiates mRNA translation, Applicant used fluorophore-labeled mono- or dual-capped oligonucleotides and measured their affinity to eIF4E through EMSA.
For orientation: In EMSA bound probe runs differently from free probe, usually more slowly.

Entries after “also recorded” stand apart in the source; their conditions may differ. Strand notation (5' to 3'): a small letter for the sugar, then the base; units joined by * are phosphorothioate-linked, units joined directly phosphodiester-linked; [ ] holds rarer units or linkages, { } end groups; capitals alone tell only the bases. [5OctU] = 5-octadiynyl-2'-deoxyuridine, alkyne click handle; d = 2'-deoxy (DNA); {3P} = phosphate; r = 2'-OH (RNA); {P} = phosphate

Chain of eIF4E (P06730 whole entry, one chain of several): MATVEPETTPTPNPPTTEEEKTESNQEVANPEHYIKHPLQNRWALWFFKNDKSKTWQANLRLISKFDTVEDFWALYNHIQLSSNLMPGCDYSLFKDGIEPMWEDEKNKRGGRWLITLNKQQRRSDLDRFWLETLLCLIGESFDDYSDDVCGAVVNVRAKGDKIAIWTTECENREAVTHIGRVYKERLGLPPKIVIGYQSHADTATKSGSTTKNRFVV

`O=C(O)C(Cc1ccccc1[N+](=O)[O-])=NNc1nc(-c2ccc(Cl)c(Cl)c2)cs1` (mixture of isomers) [4EGI-1]: in series [1] (600 μM 4EGI-1 coupled with reduction of RRL % to 30%), the “Translation of mono- and dual-capped mRNA in RRL” value is reported as “almost completely halted translation”. In series [1] (4EGI-1 600 μM or DMSO), the “Translation of mono- and dual-capped mRNA in RRL in presence of 4EGI-1” value was “inhibited translation of dual-capped mRNA; also recorded: significantly reduced”.
Turning to “construct 49: m1ψ NLuc QRNA with LNAm7G branched cap (SEQ ID NO: 115) ({P}-rArArArArArArAd[5OctU]rArArArArArA-{3P}; ligated into m1Ψ circRNA, LNA-m7G-capped LNA/2'-OMe branch oligo clicked at octadiynyl-dU)”, the “NLuc translation of QRNA relative to uncapped m1ψ-circRNA precursor (circRNA-OU)” value in series [2] (8 hrs) was determined as 17 ×; in series [2] (24 hrs) it was 30 ×; in series [2] (48 hrs), 59 ×. Also, the “Time of peak NLuc bioluminescence / translation in vivo” value in series [2] (LNP, retro-orbital injection) was 24 h. Moreover, in series [3] (HeLa cells, 8 hrs post transfection, compared to circ-NLuc with only OU handle (construct 45)), the “NLuc protein production increase of modified circRNA/QRNA” value is listed as “up to 144 fold”.
Regarding “construct 64: two-ORF FLuc-3×HiBiT QRNA with LNAm7G branched cap (SEQ ID NO: 119) ({P}-rArArArArArArAd[5OctU]rArArArArArA-{3P}; ligated into circRNA, LNA-m7G-capped LNA/2'-OMe branch oligo clicked at octadiynyl-dU, further chemistry not fully specified)”, in series [4], the “FLuc ORF expression, QRNA vs circRNA (uncapped control)” value turned out to be 166 fold; the “HiBiT ORF expression, QRNA vs circRNA (uncapped control)” value is reported as 18.7 fold; the “Translation of upstream HiBiT and downstream FLuc ORFs, result in words” value was “both the HiBiT and FLuc ORFs were enhanced”.

B1: construct S19: Bn7G-capped Nluc QRNA with globin UTRs, TGT/preQ1-azide labeled, uridine-containing (SEQ ID NO: 133) (nucleic acid)
chain: UAGUCUCGAGCUGGUACUGCAUGCACGCAAUGCUAGCUGCCCCUUUCCCGUCCUGGGUACCCCGAGUCUCCCCCGACCUCGGGUCCCAGGUAUGCUCCCACCUCCACCUGCCCCACUCACCACCUCUGCUAGUUCCAGACACCUCCCAAGCACGCAGCAAUGCAGCUCAAAACGCUUAGCCUAGCCACACCCCCACGGGAAACAGCAGUGAUUAACCUUUAGCAAUAAACGAAAGUUUAACUAAGCUAUACUAACCCCAGGGUUGGUCAAUUUCGUGCCAGCCACACCCUGGAGCUAGCAAAAAAAAAAAAAAAAAAAAAAAAAAAAAAAAAAAAAAACUCAGUAGAUGUUUUCUUGGGUUAAUUGAGGCCUGAGUAUAAGGUGACUUAUACUUGUAAUCUAUCUAAACGGGGAACCUCUCUAGUAGACAAUCCCGUGCUAAAUUGUAGGACUGCCCUUUAAUAAAUACUUCUAUAUUUAAAGAGGUAUUUAUGAAAAGCGGAAUUUAUCAGAUUAAAAAUACUUUCUCUAGAGUCGACCUGCAG
modifications: Bn7G cap; TGT/preQ1-azide label
Turning to B1, the “Nluc translation of QRNA vs circRNA, result in words” value in series [3] (circRNA with and without IRES, uridine-containing) was “translated much more efficiently than its circRNA counterpart”.

B2: 1xm7G-OU (28) (ssRNA)
RNA: AGAUAAAUAAAAAA
modifications: 5' m7G cap; 5-octadiynyl-dU at position 8
B2: in series [5] (label: 3' AF647-cytidine), the affinity, expressed as Kd, was 2.21 µM.

B3: 2xLNAm7G dual-capped branched (42) (ssRNA)
RNA 1: AGAUAAAUAAAAAA
RNA 2: AGAGAUAA
modifications: LNA-m7G cap on both 5' ends; second strand 3'-azide clicked to 5-octadiynyl-dU at position 8 of first strand
As to B3, the Kd (in general, the constant that tells how readily two partners part at equilibrium) in series [5] (label: AF647-cytidine, branched) was 1.28 µM.
